Laboratory results as given in patent US20170334899A1, “AMINO-SUBSTITUTED ISOTHIAZOLES” (Bayer Pharma Aktiengesellschaft, priority 2014, published 2017).
Values joined by “and” are separate entries in the source; they are usually repeats but may differ in a detail not shown here. Equal entries are not always repeated.

Tests used:
CDK2/CycE = target: T1, CDK2/CycE (Homo sapiens, UniProt P24941); assay: CDK2/CycE kinase assay (TR-FRET); type: biochemical; details: avg, read-out: CDK2 avg (IC50 [mol/l])
T1 construct: GST; purchased ProQinase GmbH (Freiburg, Germany); host or cells: insect cells (Sf9)
Summary of the method: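 GST-tagged human CDK2 and CycE from Sf9 cells, preincubated 15 min with compound, then 25 min at 22° C. with 10 μM ATP and 0.75 μM biotinylated Rb-derived peptide (final). Phospho-substrate read by TR-FRET (anti-pRB pSer807/pSer811, Eu anti-mouse IgG, streptavidin-XL665), 665/620 nm ratio, normalised to no-inhibitor and no-enzyme controls.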

[1] = target: T2, catalytic domain of human Bub1 (amino acids 704-1085) (Homo sapiens, UniProt O43683); assay: Bub1 kinase assay (TR-FRET); type: biochemical; details: 10 μM ATP, avg, read-out: Bub1 avg (IC50 [mol/l])
T2 construct: catalytic domain of human Bub1 (amino acids 704-1085); His6 (N); made in house; host or cells: insect cells (Hi5)
T2 sequence (O43683 704-1085): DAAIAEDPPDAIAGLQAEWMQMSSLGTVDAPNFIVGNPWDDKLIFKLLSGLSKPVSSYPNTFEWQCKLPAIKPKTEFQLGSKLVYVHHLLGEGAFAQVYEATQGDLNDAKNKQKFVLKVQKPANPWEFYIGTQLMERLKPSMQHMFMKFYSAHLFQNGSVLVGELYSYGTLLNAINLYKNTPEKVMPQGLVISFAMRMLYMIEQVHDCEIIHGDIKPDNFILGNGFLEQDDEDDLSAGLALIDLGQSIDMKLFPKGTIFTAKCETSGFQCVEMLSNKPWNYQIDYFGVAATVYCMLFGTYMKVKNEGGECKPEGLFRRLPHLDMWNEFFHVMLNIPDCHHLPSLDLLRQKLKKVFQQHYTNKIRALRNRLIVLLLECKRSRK
Summary of the method: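 Readout is the 665/620 nm TR-FRET ratio from anti-phosphoserine antibody, Eu-labelled anti-mouse IgG and streptavidin-XL665, scaled between no-enzyme and uninhibited controls. Reaction: 1 μM biotinylated peptide, 10 μM ATP, 60 min, 22 °C, after 15 min compound preincubation with His6-Bub1 (704-1085, insect-expressed, ~200 ng/ml).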

Cc1nsc(Nc2cncc(C(F)(F)F)n2)c1C(=O)Nc1ccc(C(=O)OC(C)(C)C)cc1 [Example 193, tert-butyl tert-butyl 4-{[(3-methyl-5-{[6-(trifluoromethyl)pyrazin-2-yl]amino}-1,2-thiazol-4-yl)carbonyl]amino}benzoate]
IC50 (CDK2/CycE): 12 µM | IC50 [1]: > 20 µM

Cc1nsc(Nc2cncc(C(F)(F)F)n2)c1C(=O)Nc1cccc(S(C)(=O)=O)c1 [Example 194, 3-methyl-N-[3-(methylsulfonyl)phenyl]-5-{[6-(trifluoromethyl)pyrazin-2-yl]amino}-1,2-thiazole-4-carboxamide]
IC50 (CDK2/CycE): > 20 µM and 7.8 µM | IC50 [1]: > 20 µM and 11 µM and 19 µM

Cc1nsc(Nc2cncc(C(F)(F)F)n2)c1C(=O)Nc1ccc(OCCN)nc1 [Example 196, N-[6-(2-aminoethoxy)pyridin-3-yl]-3-methyl-5-{[6-(trifluoromethyl)pyrazin-2-yl]amino}-1,2-thiazole-4-carboxamide]
IC50 (CDK2/CycE): > 20 µM | IC50 [1]: > 20 µM

Cc1nsc(Nc2cnc(C(F)(F)F)cn2)c1C(=O)Nc1ccc(OCCN)nc1 [Example 197, N-[6-(2-aminoethoxy)pyridin-3-yl]-3-methyl-5-{[5-(trifluoromethyl)pyrazin-2-yl]amino}-1,2-thiazole-4-carboxamide]
IC50 (CDK2/CycE): > 20 µM | IC50 [1]: 9.1 µM

Cc1nsc(Nc2cnc3ccccc3n2)c1C(=O)Nc1ccc(OCCC(=O)OC(C)(C)C)nc1 [Example 198, tert-butyl 3-{[5-({[3-methyl-5-(quinoxalin-2-ylamino)-1,2-thiazol-4-yl]carbonyl}amino)pyridin-2-yl]oxy}propanoate]
IC50 (CDK2/CycE): > 20 µM | IC50 [1]: > 20 µM

Cc1nsc(Nc2ccc(C#N)cn2)c1C(=O)Nc1ccc(OCCC(=O)OC(C)(C)C)nc1 [Example 199, tert-butyl 3-({5-[({5-[(5-cyanopyridin-2-yl)amino]-3-methyl-1,2-thiazol-4-yl}carbonyl)amino]pyridin-2-yl}oxy)propanoate]
IC50 (CDK2/CycE): > 20 µM | IC50 [1]: > 20 µM

Cc1nsc(Nc2cc(C#N)ccn2)c1C(=O)Nc1ccc(OCCC(=O)OC(C)(C)C)nc1 [Example 200, tert-butyl 3-({5-[({5-[(4-cyanopyridin-2-yl)amino]-3-methyl-1,2-thiazol-4-yl}carbonyl)amino]pyridin-2-yl}oxy)propanoate]
IC50 (CDK2/CycE): > 20 µM | IC50 [1]: > 20 µM

Cc1nsc(Nc2cnc3ccccc3n2)c1C(=O)Nc1ccc(C(N)=O)c(F)c1 [Example 201, N-(4-carbamoyl-3-fluorophenyl)-3-methyl-5-(quinoxalin-2-ylamino)-1,2-thiazole-4-carboxamide]
IC50 (CDK2/CycE): > 20 µM | IC50 [1]: > 20 µM

Cc1nsc(Nc2cnc3ccccc3n2)c1C(=O)Nc1ccc(F)c(C(N)=O)c1 [Example 202, N-(3-carbamoyl-4-fluorophenyl)-3-methyl-5-(quinoxalin-2-ylamino)-1,2-thiazole-4-carboxamide]
IC50 (CDK2/CycE): > 20 µM | IC50 [1]: > 20 µM

Cc1nsc(Nc2ccc(C#N)cn2)c1C(=O)Nc1ccc(F)c(C(N)=O)c1 [Example 203, N-(3-carbamoyl-4-fluorophenyl)-5-[(5-cyanopyridin-2-yl)amino]-3-methyl-1,2-thiazole-4-carboxamide]
IC50 (CDK2/CycE): > 20 µM | IC50 [1]: > 20 µM

Cc1nsc(Nc2cncc(C(F)(F)F)n2)c1C(=O)Nc1ccc(F)c(C(N)=O)c1 [Example 204, N-(3-carbamoyl-4-fluorophenyl)-3-methyl-5-{[6-(trifluoromethyl)pyrazin-2-yl]amino}-1,2-thiazole-4-carboxamide]
IC50 (CDK2/CycE): > 20 µM | IC50 [1]: > 20 µM and 16 µM

CC(=O)Nc1cc(NC(=O)c2c(C)nsc2Nc2cnccn2)ccc1F [Example 205, N-(3-acetamido-4-fluorophenyl)-3-methyl-5-(pyrazin-2-ylamino)-1,2-thiazole-4-carboxamide]
IC50 (CDK2/CycE): > 20 µM | IC50 [1]: > 20 µM

CC(=O)Nc1cc(NC(=O)c2c(C)nsc2Nc2cnc(C(F)(F)F)cn2)ccc1F [Example 206, N-(3-acetamido-4-fluorophenyl)-3-methyl-5-{[5-(trifluoromethyl)pyrazin-2-yl]amino}-1,2-thiazole-4-carboxamide]
IC50 (CDK2/CycE): > 20 µM | IC50 [1]: 13 µM

CNC(=O)c1ccc(NC(=O)c2c(C)nsc2Nc2cnc3ccccc3n2)cc1F [Example 207, N-[3-fluoro-4-(methylcarbamoyl)phenyl]-3-methyl-5-(quinoxalin-2-ylamino)-1,2-thiazole-4-carboxamide]
IC50 (CDK2/CycE): > 20 µM | IC50 [1]: > 20 µM

CNC(=O)c1ccc(NC(=O)c2c(C)nsc2Nc2ccc(C#N)cn2)cc1F [Example 208, 5-[(5-cyanopyridin-2-yl)amino]-N-[3-fluoro-4-(methylcarbamoyl)phenyl]-3-methyl-1,2-thiazole-4-carboxamide]
IC50 (CDK2/CycE): > 20 µM | IC50 [1]: > 20 µM

Cc1nsc(Nc2cncc(C(F)(F)F)n2)c1C(=O)Nc1ccc(OCCCN)nc1 [Example 209, N-[6-(3-aminopropoxy)pyridin-3-yl]-3-methyl-5-{[6-(trifluoromethyl)pyrazin-2-yl]amino}-1,2-thiazole-4-carboxamide]
IC50 (CDK2/CycE): > 20 µM | IC50 [1]: > 20 µM

CNS(=O)(=O)c1ccc(NC(=O)c2c(C)nsc2Nc2cc(C#N)ccn2)cc1 [Example 210, 5-[(4-cyanopyridin-2-yl)amino]-3-methyl-N-[4-(methylsulfamoyl)phenyl]-1,2-thiazole-4-carboxamide]
IC50 (CDK2/CycE): > 20 µM | IC50 [1]: > 20 µM

CNS(=O)(=O)c1ccc(NC(=O)c2c(C)nsc2Nc2cncc(C(F)(F)F)n2)cc1 [Example 211, 3-methyl-N-[4-(methylsulfamoyl)phenyl]-5-{[6-(trifluoromethyl)pyrazin-2-yl]amino}-1,2-thiazole-4-carboxamide]
IC50 (CDK2/CycE): 15 µM | IC50 [1]: 4.3 µM

CNS(=O)(=O)c1ccc(NC(=O)c2c(C)nsc2Nc2cnc(C(F)(F)F)cn2)cc1 [Example 212, 3-methyl-N-[4-(methylsulfamoyl)phenyl]-5-{[5-(trifluoromethyl)pyrazin-2-yl]amino}-1,2-thiazole-4-carboxamide]
IC50 (CDK2/CycE): > 20 µM | IC50 [1]: > 20 µM

Cc1nsc(Nc2cnc(C(F)(F)F)cn2)c1C(=O)Nc1ccc(C(=O)NCCN2CCCC(F)C2)cc1 (centres unmarked) [Example 213, N-(4-{[2-(3-fluoropiperidin-1-yl)ethyl]carbamoyl}phenyl)-3-methyl-5-{[5-(trifluoromethyl)pyrazin-2-yl]amino}-1,2-thiazole-4-carboxamide]
IC50 (CDK2/CycE): > 20 µM | IC50 [1]: 17 µM

Cc1nsc(Nc2cnc(C(F)(F)F)cn2)c1C(=O)Nc1ccc(OCCNC(=O)OC(C)(C)C)c(F)c1 [Example 215, tert-butyl [2-(2-fluoro-4-{[(3-methyl-5-{[5-(trifluoromethyl)pyrazin-2-yl]amino}-1,2-thiazol-4-yl)carbonyl]amino}phenoxy)ethyl]carbamate]
IC50 (CDK2/CycE): > 20 µM | IC50 [1]: > 20 µM

Cc1nsc(Nc2cncc(C(F)(F)F)n2)c1C(=O)Nc1ccc(OCCNC(=O)OC(C)(C)C)c(F)c1 [Example 216, tert-butyl [2-(2-fluoro-4-{[(3-methyl-5-{[6-(trifluoromethyl)pyrazin-2-yl]amino}-1,2-thiazol-4-yl)carbonyl]amino}phenoxy)ethyl]carbamate]
IC50 (CDK2/CycE): > 20 µM | IC50 [1]: > 20 µM

Cc1nsc(Nc2cnc(C(F)(F)F)cn2)c1C(=O)Nc1ccc(OC2CCN(C(=O)OC(C)(C)C)CC2)c(F)c1 [Example 217, tert-butyl 4-(2-fluoro-4-{[(3-methyl-5-{[5-(trifluoromethyl)pyrazin-2-yl]amino}-1,2-thiazol-4-yl)carbonyl]amino}phenoxy)piperidine-1-carboxylate]
IC50 (CDK2/CycE): > 20 µM | IC50 [1]: > 20 µM

Cc1nsc(Nc2cncc(C(F)(F)F)n2)c1C(=O)Nc1ccc(OC2CCN(C(C)C)CC2)nc1 [Example 218, N-{6-[(1-isopropylpiperidin-4-yl)oxy]pyridin-3-yl}-3-methyl-5-{[6-(trifluoromethyl)pyrazin-2-yl]amino}-1,2-thiazole-4-carboxamide]
IC50 (CDK2/CycE): > 20 µM | IC50 [1]: > 20 µM

Cc1nsc(Nc2cncc(C(F)(F)F)n2)c1C(=O)Nc1ccc(OC2CCN(C)CC2)nc1 [Example 219, 3-methyl-N-{6-[(1-methylpiperidin-4-yl)oxy]pyridin-3-yl}-5-{[6-(trifluoromethyl)pyrazin-2-yl]amino}-1,2-thiazole-4-carboxamide]
IC50 (CDK2/CycE): > 20 µM | IC50 [1]: > 20 µM

Cc1nsc(Nc2cnc(C(F)(F)F)cn2)c1C(=O)Nc1ccc(OC2CCN(C)CC2)nc1 [Example 220, 3-methyl-N-{6-[(1-methylpiperidin-4-yl)oxy]pyridin-3-yl}-5-{[5-(trifluoromethyl)pyrazin-2-yl]amino}-1,2-thiazole-4-carboxamide]
IC50 (CDK2/CycE): > 20 µM | IC50 [1]: > 20 µM

Cc1nsc(Nc2cnc(C(F)(F)F)cn2)c1C(=O)Nc1ccc(OCCN)c(F)c1 [Example 221, 3-N-[4-(2-aminoethoxy)-3-fluorophenyl]-3-methyl-5-{[5-(trifluoromethyl)pyrazin-2-yl]amino}-1,2-thiazole-4-carboxamide]
IC50 (CDK2/CycE): > 20 µM | IC50 [1]: > 20 µM

Cc1nsc(Nc2cncc(C(F)(F)F)n2)c1C(=O)Nc1ccc(C(=O)NC2CCN(C(=O)OC(C)(C)C)CC2)cc1 [Example 222, tert-butyl 4-[(4-{[(3-methyl-5-{[6-(trifluoromethyl)pyrazin-2-yl]amino}-1,2-thiazol-4-yl)carbonyl]amino}benzoyl)amino] piperidine-1-carboxylate]
IC50 (CDK2/CycE): > 20 µM | IC50 [1]: > 20 µM
